Columns and labels:
[1] = target: T1, Protein cereblon/Poly [ADP-ribose] polymerase 1 (Homo sapiens, UniProt P09874+Q96SW2); experiment: PROTAC activity at CRBN/PARP1 in human HCT-116 cells assessed as degradation of PARP1; type: cell-based
Target sequence in this assay (P09874 whole entry): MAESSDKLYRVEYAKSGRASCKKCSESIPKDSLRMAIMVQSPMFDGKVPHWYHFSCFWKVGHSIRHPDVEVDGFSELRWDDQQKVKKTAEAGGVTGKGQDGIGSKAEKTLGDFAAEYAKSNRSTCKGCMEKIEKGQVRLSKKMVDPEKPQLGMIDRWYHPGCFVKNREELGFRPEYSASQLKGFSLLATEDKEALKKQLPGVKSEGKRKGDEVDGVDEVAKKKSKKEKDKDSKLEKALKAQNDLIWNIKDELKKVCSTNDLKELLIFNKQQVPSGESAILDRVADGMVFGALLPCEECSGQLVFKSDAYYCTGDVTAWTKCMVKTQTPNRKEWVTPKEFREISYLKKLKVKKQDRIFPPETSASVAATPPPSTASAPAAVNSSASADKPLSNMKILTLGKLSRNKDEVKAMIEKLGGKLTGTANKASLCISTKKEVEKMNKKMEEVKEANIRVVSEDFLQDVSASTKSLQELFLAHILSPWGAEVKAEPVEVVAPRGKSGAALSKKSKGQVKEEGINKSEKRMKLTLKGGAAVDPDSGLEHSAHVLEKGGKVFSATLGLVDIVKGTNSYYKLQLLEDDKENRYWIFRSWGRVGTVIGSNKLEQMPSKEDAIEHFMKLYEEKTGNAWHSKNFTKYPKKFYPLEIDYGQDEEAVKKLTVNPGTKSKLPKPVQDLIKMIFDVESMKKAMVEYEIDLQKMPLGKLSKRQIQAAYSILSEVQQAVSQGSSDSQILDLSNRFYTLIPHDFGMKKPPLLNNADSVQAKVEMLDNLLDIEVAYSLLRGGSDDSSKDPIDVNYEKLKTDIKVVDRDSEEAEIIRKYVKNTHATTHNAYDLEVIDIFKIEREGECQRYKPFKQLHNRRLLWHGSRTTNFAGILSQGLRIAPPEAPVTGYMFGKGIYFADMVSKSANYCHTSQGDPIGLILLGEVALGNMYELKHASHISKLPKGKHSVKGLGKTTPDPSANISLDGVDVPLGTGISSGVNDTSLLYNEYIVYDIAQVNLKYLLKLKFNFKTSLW
Target sequence in this assay (Q96SW2 whole entry): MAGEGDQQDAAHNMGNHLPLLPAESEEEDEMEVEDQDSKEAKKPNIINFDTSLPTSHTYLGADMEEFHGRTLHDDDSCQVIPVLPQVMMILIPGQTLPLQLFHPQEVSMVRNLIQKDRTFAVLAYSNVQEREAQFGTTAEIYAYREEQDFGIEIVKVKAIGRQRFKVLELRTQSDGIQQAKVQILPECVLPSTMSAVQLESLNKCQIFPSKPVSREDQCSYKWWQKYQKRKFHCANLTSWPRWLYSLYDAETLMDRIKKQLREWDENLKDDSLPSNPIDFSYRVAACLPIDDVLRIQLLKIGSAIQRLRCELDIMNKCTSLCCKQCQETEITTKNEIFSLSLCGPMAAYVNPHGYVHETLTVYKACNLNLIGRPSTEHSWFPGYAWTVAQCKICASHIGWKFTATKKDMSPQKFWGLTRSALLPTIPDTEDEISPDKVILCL

[2] = target: T1, Protein cereblon/Poly [ADP-ribose] polymerase 1; experiment: PROTAC activity at CRBN/PARP1 in human HCT-116 cells assessed as maximum degradation of PARP1 relative to control; type: cell-based
Target sequence in this assay (P09874 2-1014 limits assumed): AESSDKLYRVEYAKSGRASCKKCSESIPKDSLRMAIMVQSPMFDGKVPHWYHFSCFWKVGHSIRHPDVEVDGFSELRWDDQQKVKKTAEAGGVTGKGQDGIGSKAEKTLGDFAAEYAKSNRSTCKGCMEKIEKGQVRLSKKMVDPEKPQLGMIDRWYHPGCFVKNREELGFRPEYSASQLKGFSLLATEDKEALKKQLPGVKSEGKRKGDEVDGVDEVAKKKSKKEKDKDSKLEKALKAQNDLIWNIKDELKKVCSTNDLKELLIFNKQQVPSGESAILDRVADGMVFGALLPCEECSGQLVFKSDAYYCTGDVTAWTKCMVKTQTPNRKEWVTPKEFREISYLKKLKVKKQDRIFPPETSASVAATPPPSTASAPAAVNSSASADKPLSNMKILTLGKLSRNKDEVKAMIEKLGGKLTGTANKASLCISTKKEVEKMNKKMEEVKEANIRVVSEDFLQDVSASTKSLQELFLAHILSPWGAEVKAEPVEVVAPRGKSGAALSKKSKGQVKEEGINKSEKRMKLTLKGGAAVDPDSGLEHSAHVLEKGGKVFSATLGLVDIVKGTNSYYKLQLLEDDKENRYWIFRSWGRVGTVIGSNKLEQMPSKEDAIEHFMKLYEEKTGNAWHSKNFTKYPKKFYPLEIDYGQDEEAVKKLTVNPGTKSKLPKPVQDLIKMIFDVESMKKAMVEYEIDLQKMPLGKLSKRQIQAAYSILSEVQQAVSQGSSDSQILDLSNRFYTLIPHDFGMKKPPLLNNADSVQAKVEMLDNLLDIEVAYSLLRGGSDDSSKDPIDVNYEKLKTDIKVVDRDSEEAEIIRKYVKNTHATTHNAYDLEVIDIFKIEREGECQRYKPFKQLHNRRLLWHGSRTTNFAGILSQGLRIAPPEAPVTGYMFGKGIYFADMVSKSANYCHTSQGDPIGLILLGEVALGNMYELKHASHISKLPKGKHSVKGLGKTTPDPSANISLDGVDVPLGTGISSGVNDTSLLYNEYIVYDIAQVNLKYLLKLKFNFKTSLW
Target sequence in this assay (Q96SW2 whole entry partner): as the sequence (Q96SW2 whole entry) above

SW-620 = experiment: Cytotoxicity against human SW620 cells assessed as inhibition of cell growth measured after 72 hrs by CCK-8 method; type: functional, cell-based; details: SW-620, 72 h
HCT-116 [3] = experiment: Induction of apoptosis in human HCT-116 cells assessed as necrotic cells at 2.5 nM measured after 72 hrs by annexin V/FITC and PI staining based flow cytometry analysis (reference value: 0.16%); type: functional
HCT-116 [4] = experiment: Cytotoxicity against human HCT-116 cells assessed as inhibition of cell growth measured after 72 hrs by CCK-8 method; type: functional, cell-based; details: HCT-116, 72 h
HCT-116 [5] = experiment: Induction of apoptosis in human HCT-116 cells assessed as early apoptotic cells at 2.5 nM measured after 72 hrs by annexin V/FITC and PI staining based flow cytometry analysis (reference value: 3.43%); type: functional
HCT-116 [6] = experiment: Induction of apoptosis in human HCT-116 cells assessed as late apoptotic cells at 2.5 nM measured after 72 hrs by annexin V/FITC and PI staining based flow cytometry analysis (reference value: 6.80%); type: functional
HCT-116 [7] = experiment: Induction of apoptosis in human HCT-116 cells assessed as viable cells at 2.5 nM measured after 72 hrs by annexin V/FITC and PI staining based flow cytometry analysis (reference value: 89.6%); type: functional; details: read-out: Activity
LoVo = experiment: Cytotoxicity against human LoVo cells assessed as inhibition of cell growth measured after 72 hrs by CCK-8 method; type: functional, cell-based
[8] = Cytotoxicity against human BEAS-2B cells assessed as inhibition of cell growth measured after 72 hrs by CCK-8 method; type: toxicity, cell-based
[9] = Cytotoxicity against HEK293T cells assessed as inhibition of cell growth measured after 72 hrs by CCK-8 method; type: toxicity, cell-based, HEK-293T; details: human

DC50 [1] [µM] | Emax [2] [%] | Structure (SMILES) | further results
> 20 | – | NC(=O)c1cccc2cn(-c3ccc([C@@H]4CCCN(C(=O)CC5CCN(CC6CCN(c7ccc8c(c7)C(=O)N(C7CCC(=O)NC7=O)C8=O)C6)CC5)C4)cc3)nc12 (some centres undefined) | –
> 20 | 31.8 | NC(=O)c1cccc2cn(-c3ccc([C@@H]4CCCN(C(=O)CC5CCN(CC6CN(c7ccc8c(c7)C(=O)N(C7CCC(=O)NC7=O)C8=O)C6)CC5)C4)cc3)nc12 (some centres undefined) | –
> 20 | 30.2 | NC(=O)c1cccc2cn(-c3ccc([C@@H]4CCCN(C(=O)C5CCN(CC6CCN(c7ccc8c(c7)C(=O)N(C7CCC(=O)NC7=O)C8=O)CC6)CC5)C4)cc3)nc12 (some centres undefined) | –
> 20 | 32.8 | NC(=O)c1cccc2cn(-c3ccc([C@@H]4CCCN(C(=O)C5CCN(CC6CCN(c7ccc8c(c7)C(=O)N(C7CCC(=O)NC7=O)C8=O)C6)CC5)C4)cc3)nc12 (some centres undefined) | –
0.5 | 83.6 | NC(=O)c1cccc2cn(-c3ccc([C@@H]4CCCN(C(=O)CC5CCN(CCC6CCN(CC7CN(c8ccc9c(c8)C(=O)N(C8CCC(=O)NC8=O)C9=O)C7)CC6)CC5)C4)cc3)nc12 (some centres undefined) | –
15.6 | 59.4 | NC(=O)c1cccc2cn(-c3ccc([C@@H]4CCCN(C(=O)CC5CCN(CC6CCN(c7ccc8c(c7)C(=O)N(C7CCC(=O)NC7=O)C8=O)CC6)CC5)C4)cc3)nc12 (some centres undefined) | –
> 20 | 30.1 | NC(=O)c1cccc2cn(-c3ccc([C@@H]4CCCN(C(=O)CC5CCN(CCC6CCN(c7ccc8c(c7)C(=O)N(C7CCC(=O)NC7=O)C8=O)CC6)CC5)C4)cc3)nc12 (some centres undefined) | –
> 20 | 15.7 | NC(=O)c1cccc2cn(-c3ccc([C@@H]4CCCN(C(=O)C5CCN(C(=O)C6CCN(c7ccc8c(c7)C(=O)N(C7CCC(=O)NC7=O)C8=O)CC6)CC5)C4)cc3)nc12 (some centres undefined) | –
> 20 | 33.6 | NC(=O)c1cccc2cn(-c3ccc([C@@H]4CCCN(C(=O)CC5CCN(CCC6CCN(CC7CCN(c8ccc9c(c8)C(=O)N(C8CCC(=O)NC8=O)C9=O)C7)CC6)CC5)C4)cc3)nc12 (some centres undefined) | –
19 | 53.9 | NC(=O)c1cccc2cn(-c3ccc([C@@H]4CCCN(C(=O)C5CCN(CC6CN(c7ccc8c(c7)C(=O)N(C7CCC(=O)NC7=O)C8=O)C6)CC5)C4)cc3)nc12 (some centres undefined) | –
> 20 | 35.6 | NC(=O)c1cccc2cn(-c3ccc([C@@H]4CCCN(C(=O)CC5CCN(C(=O)C6CCN(c7ccc8c(c7)C(=O)N(C7CCC(=O)NC7=O)C8=O)CC6)CC5)C4)cc3)nc12 (some centres undefined) | –

The remaining lines, values behind:

Structure (SMILES) | DC50 [1] [µM] | Emax [2] [%] | further results
NC(=O)c1cccc2cn(-c3ccc([C@@H]4CCCN(C(=O)CCCCCCNc5ccc6c(c5)C(=O)N(C5CCC(=O)NC5=O)C6=O)C4)cc3)nc12 (some centres undefined) | > 20 | 37.3 | –
NC(=O)c1cccc2cn(-c3ccc([C@@H]4CCCN(C(=O)CC5CCN(C(=O)CC6CCN(c7ccc8c(c7)C(=O)N(C7CCC(=O)NC7=O)C8=O)CC6)CC5)C4)cc3)nc12 (some centres undefined) | > 20 | – | –
NC(=O)c1cccc2cn(-c3ccc([C@@H]4CCCN(C(=O)CC5CCN(CCC6CCN(CC7CCN(c8ccc9c(c8)C(=O)N(C8CCC(=O)NC8=O)C9=O)CC7)CC6)CC5)C4)cc3)nc12 (some centres undefined) | 0.04 | 57.1 | –
NC(=O)c1cccc2cn(-c3ccc([C@@H]4CCCN(C(=O)CCCCNc5ccc6c(c5)C(=O)N(C5CCC(=O)NC5=O)C6=O)C4)cc3)nc12 (some centres undefined) | > 20 | 29.8 | –
NC(=O)c1cccc2cn(-c3ccc([C@@H]4CCCN(C(=O)CC5CCN(C(=O)CC6CCN(CC7CCN(c8ccc9c(c8)C(=O)N(C8CCC(=O)NC8=O)C9=O)C7)CC6)CC5)C4)cc3)nc12 (some centres undefined) | 20.1 | 49.8 | –
NC(=O)c1cccc2cn(-c3ccc([C@@H]4CCCN(C(=O)COCCOCCNc5ccc6c(c5)C(=O)N(C5CCC(=O)NC5=O)C6=O)C4)cc3)nc12 (some centres undefined) | > 20 | 49.1 | –
NC(=O)c1cccc2cn(-c3ccc([C@@H]4CCCN(CCC5CCN(CCC6CCN(CC7CN(c8ccc9c(c8)C(=O)N(C8CCC(=O)NC8=O)C9=O)C7)CC6)CC5)C4)cc3)nc12 (some centres undefined) | 0.03 | 71 | –
NC(=O)c1cccc2cn(-c3ccc([C@@H]4CCCN(C(=O)CC5CCN(C(=O)CC6CCN(C(=O)C7CCN(c8ccc9c(c8)C(=O)N(C8CCC(=O)NC8=O)C9=O)CC7)CC6)CC5)C4)cc3)nc12 (some centres undefined) | > 20 | 6.96 | –
NC(=O)c1cccc2cn(-c3ccc([C@@H]4CCCN(C(=O)COCCOCCOCCOCCNc5ccc6c(c5)C(=O)N(C5CCC(=O)NC5=O)C6=O)C4)cc3)nc12 (some centres undefined) | 0.06 | 78.9 | –
NC(=O)c1cccc2cn(-c3ccc([C@@H]4CCCN(C(=O)COCCOCCOCCNc5ccc6c(c5)C(=O)N(C5CCC(=O)NC5=O)C6=O)C4)cc3)nc12 (some centres undefined) | > 20 | 37.4 | –
NC(=O)c1cccc2cn(-c3ccc([C@@H]4CCCNC4)cc3)nc12 [NIRAPARIB] | – | – | IC50 (SW-620): 0.49 µM
CCc1c2c(nc3ccc(O)cc13)-c1cc3c(c(=O)n1C2)COC(=O)[C@]3(O)CC [7-ETHYL-10-HYDROXYCAMPTOTHECIN] | – | – | Activity (HCT-116 [3]): 0.77%; IC50 (HCT-116 [4]): 0.0029 µM; Activity (HCT-116 [5]): 5.48%; Activity (HCT-116 [6]): 17.1%; viability at 0.0025 µM (HCT-116 [7]): 76.7%; IC50 (LoVo): 0.0029 µM
NC(=O)c1cccc2cn(-c3ccc([C@@H]4CCCN(C(=O)CC5CCN(C(=O)CC6CCN(CC7CN(c8ccc9c(c8)C(=O)N(C8CCC(=O)NC8=O)C9=O)C7)CC6)CC5)C4)cc3)nc12 (some centres undefined) | 16.3 | 47.6 | –
NC(=O)c1cccc2cn(-c3ccc([C@@H]4CCCN(C(=O)COCCOCCOCCOCCOCCNc5ccc6c(c5)C(=O)N(C5CCC(=O)NC5=O)C6=O)C4)cc3)nc12 (some centres undefined) | 19.1 | 47.7 | –
O=C(CCCCCCCCCCC(=O)N1CCN(C(=O)c2cc(Cc3n[nH]c(=O)c4ccccc34)ccc2F)CC1)NCCNc1cccc2c1C(=O)N(C1CCC(=O)NC1=O)C2=O (centres undefined) | – | – | IC50 at 72 h [8]: 3.7 µM; IC50 (LoVo): > 10 µM; IC50 at 72 h [9]: 1.86 µM; IC50 (SW-620): > 10 µM
NC(=O)c1cccc2cn(-c3ccc([C@@H]4CCCN(C(=O)CCCCCCCCNc5ccc6c(c5)C(=O)N(C5CCC(=O)NC5=O)C6=O)C4)cc3)nc12 (some centres undefined) | 2.21 | 58.8 | –
NC(=O)c1cccc2cn(-c3ccc([C@@H]4CCCN(C(=O)CC5CCN(C(=O)CC6CCN(CC7CCN(c8ccc9c(c8)C(=O)N(C8CCC(=O)NC8=O)C9=O)CC7)CC6)CC5)C4)cc3)nc12 (some centres undefined) | 0.23 | 65.1 | –
